Patent US4254147A, “Pharmaceutical composition for total parenteral nutrition” (priority 1978, dated 1981)

Assays:
[1] = LD50 acute toxicity, rat (Litchfield and Wilcoxon method); settings: in vivo
Description: (§1) As known, carnitine contains an asimmetric atom and consequently exists in two stereoisomers. […] Thus, the LD50 in rats and mice assessed for various routes of administration according to the Litchfield and Wilcoxon method is as shown in the following Table A. (Litchfield, J. T., and Wilcoxon, F., J. Pharm. Exptl. Therap. 96, 99. 1949).

[2] = LD50 acute toxicity, mouse (Litchfield and Wilcoxon method); settings: in vivo
Description: as §1

[3] = Effective utilization of exogenous glycerides on daily carnitine dosing; assay type: in vivo, patient
Experimental: The dose of carnitine which is administered will be determined by the attending physician having regard to the age, weight and condition of the patient, using sound professional judgement. Although effective utilization of exogenous glycerides can be noticed at doses as low as from 30 to 50 mg/kg of body weight daily, a dose of from about 150 to about 200 mg/kg of body weight daily is preferred.

[4] = Activity and toxicity comparison of carnitine isomers (in words); settings: isomers of carnitine compared
Description: as §1

In the case of `C[N+](C)(C)CC(O)CC(=O)[O-]` (racemic) [D,L-carnitine], the LD50 ([1]; iv) is reported as 995 mg/kg, the LD50 ([2]; iv) is reported as 610 mg/kg and the LD50 ([2]; sc) is reported as 6000 mg/kg.

For `C[N+](C)(C)CC(O)CC(=O)[O-]` (stereo not shown) [carnitine], the minimal effective dose ([3]; Homo sapiens, daily carnitine dose, read-out: dose at which effective utilization of exogenous glycerides can be noticed) was 30 to 50 mg/kg/day and the toxicity of carnitine ([3]; in vivo) was “extremely low toxicity”.

For `C[N+](C)(C)C[C@H](O)CC(=O)[O-]` [L-carnitine], the “activity of the isomer” value [4] was “more active” and the LD50 ([2]; sc) was 7000 mg/kg.

With `C[N+](C)(C)C[C@@H](O)CC(=O)[O-]` [D-carnitine] the LD50 ([1]; sc) was 10000 mg/kg, the “toxicity of the isomer” value [4] was “slightly more toxic” and the LD50 ([2]; sc) was 5400 mg/kg.
